Assay results: ChEMBL document CHEMBL1201862, “PubChem BioAssay data set” (2004)
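Grown in 96-well plates, cells were treated for 48 hours with each compound at five concentrations. Insufficient inhibition: endpoint recorded as highest concentration tested. Abbreviation: GI50, concentration required for 50% inhibition of growth.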 The source made the active and inactive calls. No stated cut-off is given here; in the data, active = GI50 up to about 1.1 µM and inactive = higher.

Columns and labels:
Experiment in all cases: DTP human tumour cell line panel, 48 h
[1] = test system: 786-0
[2] = test system: A498
[3] = test system: CAKI-1
[4] = test system: CCRF-CEM
[5] = test system: HCC 2998
[6] = test system: HL-60
[7] = test system: HOP-62
[8] = test system: HOP-92
[9] = test system: IGROV-1
[10] = test system: K562
[11] = test system: MDA-MB-231
[12] = test system: MOLT-4
[13] = test system: NCI-H23
[14] = test system: NCI-H460
[15] = test system: SF-539
[16] = test system: SW-620
[17] = test system: U-251
[18] = test system: UACC-257
[19] = test system: UO-31
[20] = test system: OVCAR-5

Measured: GI50

CCCCC(=O)c1ccc2ccccc2c1O
inactive: [1] > 100 µM | [2] > 100 µM | [3] > 100 µM | [4] 42.8 µM | [5] > 100 µM | [6] 51.3 µM | [7] > 100 µM | [8] > 100 µM | [9] > 100 µM | [10] 28.8 µM | [11] 66.4 µM | [12] 84.1 µM | [13] > 100 µM | [14] > 100 µM | [15] > 100 µM | [16] > 100 µM | [17] > 100 µM | [18] > 100 µM | [19] > 100 µM

CCN(CC)c1nc(NC2CCCCC2)c2nc(N(CC)CC)nc(NC3CCCCC3)c2n1
inactive: [1] > 100 µM | [2] > 100 µM | [4] > 100 µM | [5] > 100 µM | [6] > 100 µM | [7] 73.1 µM | [8] 38.7 µM | [9] > 100 µM | [10] > 100 µM | [11] 88.1 µM | [12] > 100 µM | [13] > 100 µM | [14] > 100 µM | [20] > 100 µM | [15] 29.5 µM | [16] > 100 µM | [17] > 100 µM

COc1cc(/C=C2\C(=O)N(c3ccccc3Cl)C(c3ccccc3)S2(=O)=O)cc(OC)c1OC (configuration not stated)
inactive: [1] 31.2 µM | [2] > 100 µM | [3] 59.7 µM | [4] 16 µM | [5] > 100 µM | [6] 28.6 µM | [7] 53 µM | [8] 41.3 µM | [10] 22 µM | [11] 49.9 µM | [12] 15.3 µM | [13] 39.1 µM | [14] 52.2 µM | [20] 20.9 µM | [15] 20 µM | [16] 37.3 µM | [17] 24.2 µM | [18] 51.1 µM | [19] 30.3 µM

C/C(CC(O)(C(F)(F)F)C(F)(F)F)=N\O
inactive: [1] > 10 µM | [2] > 10 µM | [3] > 10 µM | [4] > 10 µM | [5] > 10 µM | [6] > 10 µM | [7] > 10 µM | [8] > 10 µM | [9] > 10 µM | [10] > 10 µM | [11] > 10 µM | [12] > 10 µM | [13] > 10 µM | [14] > 10 µM | [20] > 10 µM | [15] > 10 µM | [16] > 10 µM | [17] > 10 µM | [18] > 10 µM

O=C1c2ccccc2CN1c1ccc(O)cc1
inactive: [1] > 100 µM | [2] > 100 µM | [3] > 100 µM | [4] > 100 µM | [5] > 100 µM | [6] > 100 µM | [7] > 100 µM | [8] > 100 µM | [9] > 100 µM | [10] > 100 µM | [11] > 100 µM | [12] > 100 µM | [13] > 100 µM | [14] > 100 µM | [20] > 100 µM | [15] > 100 µM | [16] > 100 µM | [17] > 100 µM | [18] > 100 µM

COc1ccc(C(SCCO)(c2ccccc2)c2ccccc2)cc1
inactive: [1] 12.5 µM | [2] 17.2 µM | [3] 15.5 µM | [4] 15.5 µM | [5] 16.4 µM | [6] 22.8 µM | [7] 15.4 µM | [8] 11 µM | [10] 12.9 µM | [11] 14.3 µM | [12] 15.7 µM | [13] 16.9 µM | [14] 13.3 µM | [20] 16.9 µM | [15] 15.6 µM | [16] 20.6 µM | [17] 13.1 µM | [18] 17.4 µM | [19] 14.9 µM

COc1ccc(N2C(N)=C(C#N)C(C#N)(C#N)C2c2cccc([N+](=O)[O-])c2)cc1 (configuration not stated)
inactive: [1] 14.5 µM | [2] 16.1 µM | [3] 2.61 µM | [4] 3.05 µM | [5] 16.9 µM | [6] 3.03 µM | [7] 16.3 µM | [8] 12.9 µM | [9] 14.7 µM | [10] 2.92 µM | [11] 14.9 µM | [12] 3.78 µM | [13] 15.5 µM | [20] 17.5 µM | [15] 14.7 µM | [16] 11.2 µM | [17] 17.4 µM | [18] 13.7 µM | [19] 17.3 µM

c1cc(-c2ccc(-c3ccc(C4=NCCCN4)cc3)o2)ccc1C1=NCCCN1
inactive: [1] 61.5 µM | [2] 2.24 µM | [3] 74.1 µM | [4] > 100 µM | [5] 92.9 µM | [6] > 100 µM | [7] 47.8 µM | [8] 32 µM | [10] 40.6 µM | [11] > 100 µM | [12] > 100 µM | [13] 46 µM | [14] 14.6 µM | [20] > 100 µM | [15] 87.5 µM | [16] 82.2 µM | [17] 33.3 µM | [18] 38.8 µM | [19] > 100 µM

COc1cc(-c2oc3c(OC)c(O)c(OC)c(O)c3c(=O)c2OC)cc(O)c1OC
inactive: [1] 44.4 µM | [2] 22.5 µM | [3] 24.5 µM | [4] 28.9 µM | [5] 31.3 µM | [6] 24.8 µM | [7] 40.5 µM | [8] 39.4 µM | [9] 12.1 µM | [10] 26.5 µM | [11] 46.2 µM | [12] 42.9 µM | [13] 22.6 µM | [20] 56.6 µM | [15] 20.7 µM | [16] 44.3 µM | [17] 43.4 µM | [18] 51.2 µM | [19] 23.5 µM

O=C(N/N=C(COc1ccc(Cl)cc1)\N=C\c1ccncc1)c1ccncc1
inactive: [1] > 100 µM | [2] 45.9 µM | [3] > 100 µM | [4] > 100 µM | [5] > 100 µM | [6] > 100 µM | [7] > 100 µM | [8] 43.3 µM | [9] > 100 µM | [10] > 100 µM | [11] > 100 µM | [12] > 100 µM | [13] > 100 µM | [14] > 100 µM | [20] > 100 µM | [15] > 100 µM | [16] > 100 µM | [17] > 100 µM | [18] > 100 µM

O=C(N/N=C(COc1cccc(Cl)c1)\N=C\c1cccnc1)c1ccncc1
inactive: [1] > 100 µM | [2] 40.6 µM | [3] 73.5 µM | [4] > 100 µM | [5] > 100 µM | [6] > 100 µM | [7] > 100 µM | [8] 24.9 µM | [9] > 100 µM | [10] > 100 µM | [11] > 100 µM | [12] > 100 µM | [13] > 100 µM | [14] > 100 µM | [20] > 100 µM | [15] > 100 µM | [16] > 100 µM | [17] > 100 µM | [18] 90.4 µM
